Source: PMC6594919 (Pharmacology Research & Perspectives, 2019)

What was measured:
[1] = Unbound drug concentration in the external medium by ultrafiltration (Centrifree) and immunoassay; conditions: mean (range)
[2] = In vitro microdialysis with the intravenous EIRUS CVC catheter: drug concentrations in medium and dialysate, relative recovery (RRT, RRU); conditions: perfusate NaCl 0.9% 5 μL/min, 37°C; for Concentration dialysate: EIRUS catheter 5000 Da cutoff, immunoassay, mean (range)
[3] = Human plasma, immunoassay, triplicate (gentamicin marked **)
[4] = Human serum, immunoassay, triplicate (gentamicin repeated twice)
[5] = Medium 5: 0.2 mmol/L phosphate buffer with albumin 40 g/L in NaCl 0.9% pH 6.9, immunoassay, triplicate

CNC(C)C1CCC(N)C(OC2C(N)CC(N)C(OC3OCC(C)(O)C(NC)C3O)C2O)O1 (stereo not shown) [Gentamicin]
Unbound drug concentration medium [1, 3]: 8.9 (7.7‐10.9) mg/L | Unbound drug concentration medium [1, 4]: 7.7 (6.6‐8.9) mg/L | Unbound drug concentration medium [1, 5]: 7.3 (7.2‐7.4) mg/L | Concentration dialysate ([2]; Human plasma, triplicate (gentamicin marked **)): 8.4 (7.1‐9.6) mg/L | Concentration dialysate ([2]; Human serum, triplicate (gentamicin repeated twice)): 7.1 (5.8‐8.3) mg/L | Concentration dialysate ([2]; Medium 3: 0.2 mmol/L phosphate buffer pH 7.4, triplicate): 21.5 (21.1‐21.8) mg/L | Concentration dialysate ([2]; Medium 5: 0.2 mmol/L phosphate buffer with albumin 40 g/L in NaCl 0.9% pH 6.9, triplicate): 7.5 (7.4‐7.8) mg/L

CN[C@H](CC(C)C)C(=O)N[C@H]1C(=O)N[C@@H](CC(N)=O)C(=O)N[C@H]2C(=O)N[C@H]3C(=O)N[C@H](C(=O)N[C@H](C(=O)O)c4cc(O)cc(O)c4-c4cc3ccc4O)[C@H](O)c3ccc(c(Cl)c3)Oc3cc2cc(c3O[C@@H]2O[C@H](CO)[C@@H](O)[C@H](O)[C@H]2O[C@H]2C[C@](C)(N)[C@H](O)[C@H](C)O2)Oc2ccc(cc2Cl)[C@H]1O [Vancomycin]
Unbound drug concentration medium [1, 3]: 13.2 (10.0‐14.9) mg/L | Unbound drug concentration medium [1, 4]: 13.2 (13.2‐13.2) mg/L | Unbound drug concentration medium ([1]; Medium 4: 0.2 mmol/L phosphate buffer with albumin 40 g/L pH 7.1, immunoassay, triplicate): 6.7 (6.6‐7.4) mg/L | Unbound drug concentration medium [1, 5]: 10.3 (10.3‐10.4) mg/L | Unbound drug concentration medium ([1]; Medium 6: 0.2 mmol/L phosphate buffer with albumin 40 g/L in NaCl 1.8%, immunoassay, repeated twice): 13.3 (13.3‐13.3) mg/L | Time after which a constant (stable) recovery was observed ([2]; EIRUS catheter, t-test: significant difference prior to 60 minutes, none after): 60 min
